Legend:
Assay type in all cases: in vivo
[1] = system: ryegrass, Italian (Italian ryegrass, Lolium multiflorum); test: Test A preemergence, Italian ryegrass; settings: 0 to 100 scale (0 no effect, 100 complete control), approx. 10 d
Description: (§1) Seeds of plant species selected from barnyardgrass (Echinochloa crus-galli), kochia (Kochia scoparia), ragweed (common ragweed, Ambrosia elatior), ryegrass, Italian (Italian ryegrass, Lolium multiflorum), foxtail, green (green foxtail, Setaria viridis), and pigweed (Amaranthus retroflexus) were planted into a blend of loam soil and sand and treated preemergence with a directed soil spray using test chemicals formulated in a non-phytotoxic solvent mixture which included a surfactant. At the same time, plants selected from these weed species and also wheat (Triticum aestivum), corn (Zea mays), blackgrass (Alopecurus myosuroides), and galium (catchweed bedstraw, Galium aparine) were planted in pots containing the same blend of loam soil and sand and treated with postemergence applications of test chemicals formulated in the same manner. Plants ranged in height from 2 to 10 cm and were in the one- to two-leaf stage for the postemergence treatment. Treated plants and untreated controls were maintained in a greenhouse for approximately 10 d, after which time all treated plants were compared to untreated controls and visually evaluated for injury. Plant response ratings, summarized in Table A, are based on a 0 to 100 scale where 0 is no effect and 100 is complete control. A dash (-) response means no test result.

[2] = system: ragweed (common ragweed, Ambrosia elatior); test: Test A postemergence, ragweed; settings: 0 to 100 scale (0 no effect, 100 complete control), approx. 10 d
Description: as §1

[3] = system: sedge, umbrella (small-flower umbrella sedge, Cyperus difformis); test: Test B flooded paddy test, umbrella sedge; settings: Flood, 250 g ai/ha; applied to paddy water at 2-leaf stage; visual rating after 13 to 15 d; scale 0 to 100, 0 is no effect, 100 is complete control
Method: (§2) Plant species in the flooded paddy test selected from rice (Oryza sativa), sedge, umbrella (small-flower umbrella sedge, Cyperus difformis), ducksalad (Heteranthera limosa), and barnyardgrass (Echinochloa crus-galli) were grown to the 2-leaf stage for testing. At time of treatment, test pots were flooded to 3 cm above the soil surface, treated by application of test compounds directly to the paddy water, and then maintained at that water depth for the duration of the test. Treated plants and controls were maintained in a greenhouse for 13 to 15 d, after which time all species were compared to controls and visually evaluated. Plant response ratings, summarized in Table B, are based on a scale of 0 to 100 where 0 is no effect and 100 is complete control. A dash (-) response means no test result.

[4] = system: barnyardgrass (Echinochloa crus-galli); test: Test B flooded paddy test, barnyardgrass; settings: Flood, 250 g ai/ha; applied to paddy water at 2-leaf stage; visual rating after 13 to 15 d; scale 0 to 100, 0 is no effect, 100 is complete control
Method: as §2

[5] = system: wheat (Triticum aestivum); test: Test A postemergence, wheat; settings: 0 to 100 scale (0 no effect, 100 complete control), approx. 10 d
Description: as §1

[6] = system: barnyardgrass (Echinochloa crus-galli); test: Test A preemergence, barnyardgrass; settings: 0 to 100 scale (0 no effect, 100 complete control), approx. 10 d
Description: as §1

[7] = system: foxtail, green (green foxtail, Setaria viridis); test: Test A preemergence, green foxtail; settings: 0 to 100 scale (0 no effect, 100 complete control), approx. 10 d
Description: as §1

[8] = system: ragweed (common ragweed, Ambrosia elatior); test: Test A preemergence, ragweed; settings: 0 to 100 scale (0 no effect, 100 complete control), approx. 10 d
Description: as §1

[9] = system: rice (Oryza sativa); test: Test B flooded paddy test, rice; settings: Flood, 250 g ai/ha; applied to paddy water at 2-leaf stage; visual rating after 13 to 15 d; scale 0 to 100, 0 is no effect, 100 is complete control
Method: as §2

[10] = system: kochia (Kochia scoparia); test: Test A preemergence, kochia; settings: 0 to 100 scale (0 no effect, 100 complete control), approx. 10 d
Description: as §1

[11] = system: kochia (Kochia scoparia); test: Test A postemergence, kochia; settings: 0 to 100 scale (0 no effect, 100 complete control), approx. 10 d
Description: as §1

[12] = system: pigweed (Amaranthus retroflexus); test: Test A preemergence, pigweed; settings: 0 to 100 scale (0 no effect, 100 complete control), approx. 10 d
Description: as §1

[13] = system: corn (Zea mays); test: Test A postemergence, corn; settings: 0 to 100 scale (0 no effect, 100 complete control), approx. 10 d
Description: as §1

[14] = system: ducksalad (Heteranthera limosa); test: Test B flooded paddy test, ducksalad; settings: Flood, 250 g ai/ha; applied to paddy water at 2-leaf stage; visual rating after 13 to 15 d; scale 0 to 100, 0 is no effect, 100 is complete control
Method: as §2

[15] = system: foxtail, green (green foxtail, Setaria viridis); test: Test A postemergence, green foxtail; settings: 0 to 100 scale (0 no effect, 100 complete control), approx. 10 d
Description: as §1

[16] = system: blackgrass (Alopecurus myosuroides); test: Test A postemergence, blackgrass; settings: 0 to 100 scale (0 no effect, 100 complete control), approx. 10 d
Description: as §1

[17] = system: galium (catchweed bedstraw, Galium aparine); test: Test A postemergence, galium; settings: 0 to 100 scale (0 no effect, 100 complete control), approx. 10 d
Description: as §1

[18] = system: pigweed (Amaranthus retroflexus); test: Test A postemergence, pigweed; settings: 0 to 100 scale (0 no effect, 100 complete control), approx. 10 d
Description: as §1

[19] = system: ryegrass, Italian (Italian ryegrass, Lolium multiflorum); test: Test A postemergence, Italian ryegrass; settings: 0 to 100 scale (0 no effect, 100 complete control), approx. 10 d
Description: as §1

[20] = system: barnyardgrass (Echinochloa crus-galli); test: Test A postemergence, barnyardgrass; settings: 0 to 100 scale (0 no effect, 100 complete control), approx. 10 d
Description: as §1

CC(=O)OC[C@@]1(C(=O)Nc2cccc(F)c2F)C(=O)N(C)C[C@@H]1c1ccc(C(F)(F)F)cc1 [Compound 2, (3S,4R)-3-[(acetyloxy)methyl]-N-(2,3-difluorophenyl)-1-methyl-2-oxo-4-[4-(trifluoromethyl)phenyl]-3-pyrrolidincarboxamide]
Plant response rating, Ryegrass, Italian ([1]; 31 g ai/ha): 0 | Plant response rating, Ryegrass, Italian ([1]; 125 g ai/ha): 10 | Plant response rating, Ragweed ([2]; 31 g ai/ha): 0 | Plant response rating, Ragweed ([2]; 125 g ai/ha): 40 | Plant response rating, Sedge, Umbrella [3]: 0 | Plant response rating, Barnyardgrass [4]: 65 | Plant response rating, Wheat ([5]; 31 g ai/ha): 0 | Plant response rating, Wheat ([5]; 125 g ai/ha): 20 | Plant response rating, Barnyardgrass ([6]; 31 g ai/ha): 50 | Plant response rating, Barnyardgrass ([6]; 125 g ai/ha): 80 | Plant response rating, Foxtail, Green ([7]; 31 g ai/ha): 60 | Plant response rating, Foxtail, Green ([7]; 125 g ai/ha): 90 | Plant response rating, Ragweed ([8]; 31 g ai/ha): 0 | Plant response rating, Ragweed ([8]; 125 g ai/ha): 30 | Plant response rating, Rice [9]: 30 | Plant response rating, Kochia ([10]; 31 g ai/ha): 20 | Plant response rating, Kochia ([10]; 125 g ai/ha): 50 | Plant response rating, Kochia ([11]; 31 g ai/ha): 0 | Plant response rating, Kochia ([11]; 125 g ai/ha): 40 | Plant response rating, Pigweed ([12]; 31 g ai/ha): 20 | Plant response rating, Pigweed ([12]; 125 g ai/ha): 80 | Plant response rating, Corn ([13]; 31 g ai/ha): 0 | Plant response rating, Corn ([13]; 125 g ai/ha): 40 | Plant response rating, Ducksalad [14]: 95 | Plant response rating, Foxtail, Green ([15]; 31 g ai/ha): 20 | Plant response rating, Foxtail, Green ([15]; 125 g ai/ha): 70 | Plant response rating, Blackgrass ([16]; 31 g ai/ha): 0 | Plant response rating, Blackgrass ([16]; 125 g ai/ha): 10 | Plant response rating, Galium ([17]; 31 g ai/ha): 0 | Plant response rating, Galium ([17]; 125 g ai/ha): 40 | Plant response rating, Pigweed ([18]; 31 g ai/ha): 20 | Plant response rating, Pigweed ([18]; 125 g ai/ha): 40 | Plant response rating, Ryegrass, Italian ([19]; 31 g ai/ha): 20 | Plant response rating, Ryegrass, Italian ([19]; 125 g ai/ha): 50 | Plant response rating, Barnyardgrass ([20]; 31 g ai/ha): 0 | Plant response rating, Barnyardgrass ([20]; 125 g ai/ha): 50

CN1C[C@H](c2ccc(C(F)(F)F)cc2)[C@](CO)(C(=O)Nc2cccc(F)c2F)C1=O [Compound 4, (3S,4R)—N-(2,3-difluorophenyl)-3-(hydroxymethyl)-1-methyl-2-oxo-4-[4-(trifluoromethyl)phenyl]-3-pyrrolidinecarboxamide]
Plant response rating, Ryegrass, Italian ([1]; 31 g ai/ha): 0 | Plant response rating, Ryegrass, Italian ([1]; 125 g ai/ha): 50 | Plant response rating, Ragweed ([2]; 31 g ai/ha): 0 | Plant response rating, Ragweed ([2]; 125 g ai/ha): 0 | Plant response rating, Sedge, Umbrella [3]: 0 | Plant response rating, Barnyardgrass [4]: 50 | Plant response rating, Wheat ([5]; 31 g ai/ha): 0 | Plant response rating, Wheat ([5]; 125 g ai/ha): 20 | Plant response rating, Barnyardgrass ([6]; 31 g ai/ha): 30 | Plant response rating, Barnyardgrass ([6]; 125 g ai/ha): 90 | Plant response rating, Foxtail, Green ([7]; 31 g ai/ha): 50 | Plant response rating, Foxtail, Green ([7]; 125 g ai/ha): 90 | Plant response rating, Ragweed ([8]; 31 g ai/ha): 0 | Plant response rating, Ragweed ([8]; 125 g ai/ha): 0 | Plant response rating, Rice [9]: 0 | Plant response rating, Kochia ([10]; 31 g ai/ha): 0 | Plant response rating, Kochia ([10]; 125 g ai/ha): 40 | Plant response rating, Kochia ([11]; 31 g ai/ha): 0 | Plant response rating, Kochia ([11]; 125 g ai/ha): 60 | Plant response rating, Pigweed ([12]; 31 g ai/ha): 0 | Plant response rating, Pigweed ([12]; 125 g ai/ha): 90 | Plant response rating, Corn ([13]; 31 g ai/ha): 0 | Plant response rating, Corn ([13]; 125 g ai/ha): 50 | Plant response rating, Ducksalad [14]: 95 | Plant response rating, Foxtail, Green ([15]; 31 g ai/ha): 10 | Plant response rating, Foxtail, Green ([15]; 125 g ai/ha): 60 | Plant response rating, Blackgrass ([16]; 31 g ai/ha): 0 | Plant response rating, Blackgrass ([16]; 125 g ai/ha): 40 | Plant response rating, Galium ([17]; 31 g ai/ha): 20 | Plant response rating, Galium ([17]; 125 g ai/ha): 40 | Plant response rating, Pigweed ([18]; 31 g ai/ha): 30 | Plant response rating, Pigweed ([18]; 125 g ai/ha): 70 | Plant response rating, Ryegrass, Italian ([19]; 31 g ai/ha): 0 | Plant response rating, Ryegrass, Italian ([19]; 125 g ai/ha): 50 | Plant response rating, Barnyardgrass ([20]; 31 g ai/ha): 0 | Plant response rating, Barnyardgrass ([20]; 125 g ai/ha): 60

CN1C[C@H](c2ccc(C(F)(F)F)cc2)[C@@](CO)(C(=O)Nc2cccc(F)c2F)C1=O [Compound 5, (3R,4R)—N-(2,3-difluorophenyl)-3-(hydroxymethyl)-1-methyl-2-oxo-4-[4-(trifluoromethyl)phenyl]-3-pyrrolidinecarboxamide]
Plant response rating, Ryegrass, Italian ([1]; 31 g ai/ha): 10 | Plant response rating, Ryegrass, Italian ([1]; 125 g ai/ha): 80 | Plant response rating, Ragweed ([2]; 31 g ai/ha): 0 | Plant response rating, Ragweed ([2]; 125 g ai/ha): 40 | Plant response rating, Sedge, Umbrella [3]: 0 | Plant response rating, Barnyardgrass [4]: 65 | Plant response rating, Wheat ([5]; 31 g ai/ha): 0 | Plant response rating, Wheat ([5]; 125 g ai/ha): 30 | Plant response rating, Barnyardgrass ([6]; 31 g ai/ha): 80 | Plant response rating, Barnyardgrass ([6]; 125 g ai/ha): 90 | Plant response rating, Foxtail, Green ([7]; 31 g ai/ha): 70 | Plant response rating, Foxtail, Green ([7]; 125 g ai/ha): 90 | Plant response rating, Ragweed ([8]; 31 g ai/ha): 0 | Plant response rating, Ragweed ([8]; 125 g ai/ha): 60 | Plant response rating, Rice [9]: 25 | Plant response rating, Kochia ([10]; 31 g ai/ha): 0 | Plant response rating, Kochia ([10]; 125 g ai/ha): 60 | Plant response rating, Kochia ([11]; 31 g ai/ha): 30 | Plant response rating, Kochia ([11]; 125 g ai/ha): 70 | Plant response rating, Pigweed ([12]; 31 g ai/ha): 0 | Plant response rating, Pigweed ([12]; 125 g ai/ha): 60 | Plant response rating, Corn ([13]; 31 g ai/ha): 0 | Plant response rating, Corn ([13]; 125 g ai/ha): 60 | Plant response rating, Ducksalad [14]: 90 | Plant response rating, Foxtail, Green ([15]; 31 g ai/ha): 30 | Plant response rating, Foxtail, Green ([15]; 125 g ai/ha): 80 | Plant response rating, Blackgrass ([16]; 31 g ai/ha): 0 | Plant response rating, Blackgrass ([16]; 125 g ai/ha): 30 | Plant response rating, Galium ([17]; 31 g ai/ha): 40 | Plant response rating, Galium ([17]; 125 g ai/ha): 40 | Plant response rating, Pigweed ([18]; 31 g ai/ha): 30 | Plant response rating, Pigweed ([18]; 125 g ai/ha): 50 | Plant response rating, Ryegrass, Italian ([19]; 31 g ai/ha): 20 | Plant response rating, Ryegrass, Italian ([19]; 125 g ai/ha): 50 | Plant response rating, Barnyardgrass ([20]; 31 g ai/ha): 30 | Plant response rating, Barnyardgrass ([20]; 125 g ai/ha): 80

— US11019818B2, “Herbicidal 3-substituted lactams” (FMC Corporation, priority 2017, dated 2021)
